The numbers were not newly measured in US10194658B2, “High concentration low VOC liquid gibberellin” (Stoller Enterprises, Inc., priority 2015, dated 2019), which cites them from elsewhere.

The structures appear in SMILES notation.

For the data set the following is noted: at 20° C.

As for `CC(O)CO` (stereo not shown) [propylene glycol, propane-1,2-diol], the vapor pressure is reported as 0.08 mm Hg.
